According to patent US20260374739A1, “SMALL MOLECULAR WEIGHT CHEMICAL COMPOUND TO ANTAGONIZE EPH-EPHRIN TETRAMERIZATION AND INHIBIT BIDIRECTIONAL SIGNALING” (THE BOARD OF REGENTS OF THE UNIVERSITY OF TEXAS SYSTEM, priority 2022, published 2026):
“Also recorded” adds a separate entry of the source.

Experiments:
[1] = in vitro metabolic stability, murine microsomal assay; assay type: in vitro ADME, mouse; settings: for metabolic stability: murine microsomal, compared to A20; for half-life: mouse, liver microsomes, murine microsomal assay
[2] = tested on: CFA-induced thermal pain in mice; experiment: CFA inflammatory pain, thermal; assay type: in vivo, mouse
Method: A total of five wildtype (WT) male mice were injected IP with A20 free base (3 mice at 10 mg/kg and 2 mice at 20 mg/kg in 6% DMSO/94% sunflower seed oil, data is pooled) and three WT males with vehicle (V) only as control. As indicated, injections of A20 or V started two days prior to the single injection of CFA into one of the two hind paws to initiate inflammatory pain, and injections continued for two additional days. For each day's examination of withdrawal latency, both left and right hind paws were subjected to 6-12 thermal pain measurements to obtain an average response time for each mouse. Mice were at 14 weeks age when experiment started.
Wildtype (WT) female mice were injected IP with either A20 free base (20 mg/kg in 6% DMSO/94% sunflower seed oil), with MCD kinase inhibitor (10 mg/kg in PBS), or vehicle only (6% DMSO/94% sunflower seed oil). Injections of A20, MCD, or V started two days prior to a single injection of CFA into one of the two hind paws to initiate inflammatory pain, and injections continued for two additional days. For each day's examination of withdrawal latency, both left and right hind paws were subjected to 6-12 thermal pain measurements to obtain an average response time, and for each mouse the average of the uninjured hind paw response time was divided by the average of the injured side response time to obtain a pain response ratio for each mouse which was then plotted and subjected to indicated statistical analysis. Data shown were those obtained at day +3 post-CFA. Mice were at 20 weeks age when experiment started.
FIG. 63 depicts tests of salt versions of compounds A20 and QPB4-Bn showing both are effective at reducing inflammatory pain when injected after the pain-generating insult and when using PBS as the vehicle. Wild-type (WT) male and female mice were injected IP with either A20.2×HCl salt (20 mg/kg in PBS), QPB4-Bn·2×HCl salt (20 mg/kg in PBS), or vehicle only (PBS). Here, the first injection of A20, QPB4-Bn, or V started 15 minutes after CFA was injected into one of the two hind paws to initiate inflammatory pain, and injections continued every 12 hours for three additional days. For each day's examination of withdrawal latency, both left and right hind paws were subjected to 6-12 thermal pain measurements to obtain an average response time, and for each mouse the average of the uninjured hind paw response time was divided by the average of the injured side response time to obtain a pain response ratio for each mouse which was then plotted and subjected to indicated statistical analysis. Data shown were those obtained at day +3 post-CFA. Mice were at 8 weeks age when experiment started.
FIG. 64 depicts tests of two more A20 analogs, salt forms of QPB4 and QPP (QPP127) show both are effective at reducing inflammatory pain when injected after the pain-generating insult and when using PBS as the vehicle. Wild-type (WT) female mice were injected IP with QPB4.2×HCl salt (20 mg/kg in PBS), QPP (QPP127)·2×HCl salt (20 mg/kg in PBS), or vehicle only (PBS). Here, the first injection of QPB4, QPP (QPP127), or vehicle started 15 minutes after CFA was injected into one of the two hind paws to initiate inflammatory pain, and injections continued every 12 hours for three additional days. For each day's examination of withdrawal latency, both left and right hind paws were subjected to 6-12 thermal pain measurements to obtain an average response time, and for each mouse the average of the uninjured hind paw response time was divided by the average of the injured side response time to obtain a pain response ratio for each mouse which was then plotted and subjected to indicated statistical analysis. Data shown were those obtained at day +3 post-CFA. Mice were at 12 weeks age when experiment started.
A20 was therefore tested in 14-week-old CD1 mice for enhanced thermal sensitivity induced by CFA. […]

[3] = tested on: Zymosan-induced thermal pain in mice; experiment: Zymosan inflammatory pain, thermal; assay type: in vivo, mouse; settings: PO; for thermal pain ratio: A20 experiment vehicle close to 6
Method: An alternative and potentially faster pain model using Zymosin (an inflammatory agent like CFA) to induce inflammatory pain was tested. […] Mice were first acclimated to the pain testing set ups and then subjected to baseline mechanical and thermal pain measurements. Early in the morning the following day, the left hind paws were injected subcutaneously with 30 μL of Zymosan (5 mg/ml in PBS; Z4250, Sigma-Aldrich). Two hours after the Zymosan injection, the left hind paws were assessed for thermal pain using Hargreaves device (2-4 hr), and then left paws tested for mechanical pain using VF filaments (4-6 hr), and then again for thermal pain (6-8 hr). Data from two independent experiments were pooled to increase the n values for the three different genotypes. […] Thermal pain increased in all group following Zymosan injury as indicated by a decreased average response time to the infrared heat source in all animals assessed, and the level of pain intensified from the 2-4 hr testing period to the 6-8 hr period.
Inflammatory pain was induced by subcutaneous injection of 30 μl of 5 mg/ml Zymosan into the right hind paws of 12 wild-type adult male mice (5-6 months age, 129×1/SvJ background) that in previous days were acclimated to the testing chambers and assessed to obtain baseline pain measurements. After 15 min, mice were orally dosed with either vehicle only (97% PBS/3% DMSO) or with 20, 10, or 5 mg/kg of A20 (2×·HCl salt in vehicle), 3 mice for each condition. Two hours after Zymosan injection, the right hind paws were assessed for thermal pain using Hargreaves device (2-4 hr), then mice were orally dosed again with vehicle only or A20 chemicals, and then right paws tested for mechanical pain using VF filaments (4-6 hr), and then again for thermal pain (6-8 hr).
Inflammatory pain was induced by subcutaneous injection of 30 μl of 5 mg/ml Zymosan into the left hind paws of 9 wild-type adult males (5-6 months age, 129/CD1 mixed background) that in previous days were acclimated to the testing chambers and assessed to obtain baseline pain measurements. After 15 min, mice were orally dosed with either vehicle only (97% PBS/3% DMSO) or with 20 mg/kg of 3511-I (2×·HCl salt in vehicle), or 20 mg/kg BQPB4 (3×·HCl salt in 97% sunflower seed oil/3% DMSO), 3 mice for each condition. Two hours after Zymosan injection, the left […] hind paws were assessed for mechanical pain using VF filaments (2-4 hr), then mice were orally dosed again with vehicle only or A20 chemicals, and then left hind paws tested for thermal pain using Hargreaves device (4-6 hr), and then again for mechanical pain (6-8 hr).
Inflammatory pain was induced by subcutaneous injection of Zymosan into left hind paws, followed 15 min later with an oral dose of either vehicle or 20, 10, or 5 mg/kg of BQPB4 (3×·HCl salt in 97% sunflower seed oil/3% DMSO). Two hours after Zymosan injection, the left hind paws were assessed for mechanical pain using VF filaments (2-4 hr), then mice were orally dosed again with vehicle or BQPB4 chemical, and then hind paws tested for thermal pain using Hargreaves device (4-6 hr), and then tested again for mechanical pain (6-8 hr). […] Calculation of pain ratios confirmed the significant dose-dependent effects of BQPB4 at blunting thermal pain (FIG. 92B).

| SMILES | thermal pain ([2]; dosed after CFA) | half-life [1] | thermal pain ratio [3] | also measured |
| --- | --- | --- | --- | --- |
| Oc1c(I)cc(CN2CCOCC2)c2cccnc12 [Compound 7, 7-iodo-5-(morpholinomethyl)quinolin-8-ol] |  |  |  | metabolic stability ([1]; listed as A20-1): longer in vitro half-life; metabolic stability ([1]; listed as A20-I): increased in vitro metabolic stability compared to A20 |
| Oc1ccc(CN2CCN(Cc3ccc(Br)cc3)CC2)c2cccnc12 [Compound 42, 5-((4-(4-bromobenzyl)piperazin-1-yl)methyl)quinolin-8-ol] | ability to blunt the enhanced sensitivity produced by the inflammatory pain insult |  |  |  |
| COc1ccccc1N1CCN(Cc2cc(Br)c(O)c3ncccc23)CC1 [Compound 70, 7-bromo-5-((4-(2-methoxyphenyl)piperazin-1-yl)methyl)quinolin-8-ol] |  | 136 min |  |  |
| Oc1ccc(CN2CCN(c3ccc(Br)cc3)CC2)c2cccnc12 [Compound 26, 5-((4-(4-bromophenyl)piperazin-1-yl)methyl)quinolin-8-ol] | ability to blunt the enhanced sensitivity produced by the inflammatory pain insult |  |  |  |
| Oc1c(Br)cc(CN2CCOCC2)c2cccnc12 [Compound 5, 7-bromo-5-(morpholinomethyl)quinolin-8-ol] |  | 224 min | around 3 | thermal pain ratio ([2]; IP or PO 20 mg/kg, vehicle 4 or above): < 2; thermal pain ([2]; IP, dosing started two days before CFA, listed as A20): remarkably blunted; also recorded: appears to be a more effective agent; thermal pain ([2]; dosed after CFA, listed as A20): ability to blunt the enhanced sensitivity produced by the inflammatory pain insult; also recorded: reduced sensitivity to the infrared heat source compared to the vehicle treated mice; thermal pain [3]: significant reductions in both mechanical and thermal pain |
| Oc1ccc(CN2CCOCC2)c2cccnc12 [Compound 1, 5-(morpholinomethyl)quinolin-8-ol] |  | 22 min |  |  |
| Oc1ccc(CN2CCN(c3ccc(Br)cn3)CC2)c2cccnc12 [Compound 33, 5-((4-(5-bromopyridin-2-yl)piperazin-1-yl)methyl)quinolin-8-ol] | ability to blunt the enhanced sensitivity produced by the inflammatory pain insult |  |  |  |
| COc1ccccc1N1CCN(Cc2cc(I)c(O)c3ncccc23)CC1 [Compound 71, 7-iodo-5-((4-(2-methoxyphenyl)piperazin-1-yl)methyl)quinolin-8-ol] |  |  | ~3 | thermal pain [3]: significantly less thermal pain |
| Oc1c(Br)cc(CN2CCN(c3ccc(Br)cc3)CC2)c2cccnc12 [Compound 28, 7-bromo-5-((4-(4-bromophenyl)piperazin-1-yl)methyl)quinolin-8-ol] |  |  | below 2 | thermal pain ([3]; listed as BQPB4): significantly less thermal pain; also recorded: the 20 mg/kg dose produced the strongest and most significant reduction in pain, followed by the 10 mg/kg dose, and then the 5 mg/kg dose |
